Molecular target: T1, MerTK (Homo sapiens, UniProt Q12866)
T1 construct: endogenous in cells; host or cells: Jurkat cells
T1 sequence (Q12866 21-999): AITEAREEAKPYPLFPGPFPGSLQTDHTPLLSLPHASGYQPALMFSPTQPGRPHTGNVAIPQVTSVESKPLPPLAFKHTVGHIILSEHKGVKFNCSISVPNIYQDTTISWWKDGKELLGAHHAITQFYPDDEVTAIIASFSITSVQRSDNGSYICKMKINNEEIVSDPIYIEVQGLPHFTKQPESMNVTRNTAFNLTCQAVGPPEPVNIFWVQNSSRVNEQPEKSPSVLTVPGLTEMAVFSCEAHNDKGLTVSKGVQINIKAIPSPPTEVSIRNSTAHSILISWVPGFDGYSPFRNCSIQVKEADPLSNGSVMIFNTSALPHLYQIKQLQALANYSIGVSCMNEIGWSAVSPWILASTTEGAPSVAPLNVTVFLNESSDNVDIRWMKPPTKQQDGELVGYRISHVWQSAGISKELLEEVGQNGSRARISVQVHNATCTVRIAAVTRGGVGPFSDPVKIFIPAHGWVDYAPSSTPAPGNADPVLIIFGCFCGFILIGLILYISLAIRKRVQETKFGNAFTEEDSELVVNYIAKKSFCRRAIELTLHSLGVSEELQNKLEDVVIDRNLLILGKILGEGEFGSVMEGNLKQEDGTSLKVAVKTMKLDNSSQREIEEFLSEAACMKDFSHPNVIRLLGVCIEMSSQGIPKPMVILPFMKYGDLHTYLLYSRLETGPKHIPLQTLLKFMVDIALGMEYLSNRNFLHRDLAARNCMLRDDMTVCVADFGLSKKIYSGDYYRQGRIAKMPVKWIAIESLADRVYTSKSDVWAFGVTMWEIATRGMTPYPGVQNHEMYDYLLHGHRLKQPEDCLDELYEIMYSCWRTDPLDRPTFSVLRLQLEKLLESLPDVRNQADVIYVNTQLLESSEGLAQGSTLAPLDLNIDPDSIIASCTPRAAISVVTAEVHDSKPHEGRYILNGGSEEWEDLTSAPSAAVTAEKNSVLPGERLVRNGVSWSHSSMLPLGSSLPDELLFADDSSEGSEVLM
Test: MerTk degradation in Jurkat cells (Western blot)
Type: cell-based
Conditions: Jurkat, 4 h, 0.001-1 μM, 4 hour-incubation at 37° C., read-out: Jurkat Max % MerTK Degradation
Method in brief: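 MerTK degradation was read by near-infrared Western blot, normalized to actin, in BCA-quantified lysates of Jurkat cells exposed to 0.001-1 μM compound for 4 h at 37 °C.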

| Dmax [%] | SMILES |
| --- | --- |
| > 50 | Cn1c(=O)n(C2CCC(=O)NC2=O)c2ccc(CCOCCN3CCCC(N4CCN(Cc5ccc(-c6cn([C@H]7CC[C@H](O)CC7)c7nc(NCCC(F)(F)F)ncc67)cc5)CC4)C3)cc21 (stereo partly drawn) [I-131, 3-(3-methyl-2-oxo-5-[2-[2-(3-[4-[(4-[7-[trans-4-hydroxycyclohexyl]-2-[(3,3,3-trifluoropropyl)amino]-7H-pyrrolo[2,3-d]pyrimidin-5-yl]phenyl)methyl]piperazin-1-y1]piperidin-1-yl)ethoxy]ethyl]-2,3-dihydro-1H-1,3-benzodiazol-1-y1)piperidine-2,6-dione; formic acid] |
| > 50 | Cn1c(=O)n(C2CCC(=O)NC2=O)c2ccc(CCOCCN3CCC(N4CCN(Cc5ccc(-c6cn([C@H]7CC[C@H](O)CC7)c7nc(NCCC(F)(F)F)ncc67)cc5)CC4)C3)cc21 (stereo partly drawn) [I-132, 3-(3-methyl-2-oxo-5-[2-[2-(3-[4-[(4-[7-[trans-4-hydroxycyclohexyl]-2-[(3,3,3-trifluoropropyl)amino]-7H-pyrrolo[2,3-d]pyrimidin-5-yl]phenyl)methyl]piperazin-1-yl]pyrrolidin-1-yl)ethoxy]ethyl]-2,3-dihydro-1H-1,3-benzodiazol-1-yl)piperidine-2,6-dione] |
| > 50 | O=C1CC[C@H](n2c3ccc(NCCOCCOCCN4CCN(Cc5ccc(-c6cn([C@H]7CC[C@H](O)CC7)c7nc(NCCC(F)(F)F)ncc67)cc5)CC4)cc3c3cccnc32)C(=O)N1 [I-133, 3-[6-([2-[2-(2-[4-[(4-[7-[trans-4-hydroxycyclohexyl]-2-[(3,3,3-trifluoropropyl)amino]pyrrolo[2,3-d]pyrimidin-5-yl]phenyl)methyl]piperazin-1-yl]ethoxy)ethoxy]ethyl]amino)pyrido[2,3-b]indol-9-yl]piperidine-2,6-dione; formic acid] |
| > 50 | O=C1CC[C@H](n2c3cccc(CCCOCCOCCN4CCN(Cc5ccc(-c6cn([C@H]7CC[C@H](O)CC7)c7nc(NCCC(F)(F)F)ncc67)cc5)CC4)c3c3cccnc32)C(=O)N1 [I-134, 3-(5-[3-[2-(2-[4-[(4-[7-[trans-4-hydroxycyclohexy1]-2-[(3,3,3-trifluoropropyl)amino]pyrrolo[2,3-d]pyrimidin-5-yl]phenyl)methyl]piperazin-1-yl]ethoxy)ethoxy]propyl]pyrido[2,3-b]indol-9-y1)piperidine-2,6-dione] |
| > 50 | Cn1c(=O)n([C@H]2CCC(=O)NC2=O)c2cccc(CCCOCCOCCN3CCN(Cc4ccc(-c5cn([C@H]6CC[C@H](O)CC6)c6nc(NCCC(F)(F)F)ncc56)cc4)CC3)c21 [I-135, 3-(3-methyl-2-oxo-4-[3-[2-(2-[4-[(4-[7-[trans-4-hydroxycyclohexyl]-2-[(3,3,3-trifluoropropyl)amino]pyrrolo[2,3-d]pyrimidin-5-yl]phenyl)methyl]piperazin-1-yl]ethoxy)ethoxy]propyl]-1,3-benzodiazol-1-y1)piperidine-2,6-dione] |
| > 50 | Cn1c(=O)n([C@H]2CCC(=O)NC2=O)c2ccc(CCCN3CC(C4CCN(Cc5ccc(-c6cn([C@H]7CC[C@H](O)CC7)c7nc(NCCC(F)(F)F)ncc67)cc5)CC4)C3)cc21 [I-136, 3-[3-methyl-2-oxo-5-[3-(3-[1-[(4-[7-[trans-4-hydroxycyclohexyl]-2-[(3,3,3-trifluoropropyl)amino]pyrrolo[2,3-d]pyrimidin-5-yl]phenyl)methyl]piperidin-4-yl]azetidin-1-yl)propyl]-1,3-benzodiazol-1-y1]piperidine-2,6-dione; tris(formic acid)] |
| > 50 | Cn1c(=O)n([C@H]2CCC(=O)NC2=O)c2ccc(CCCN3CCC(C4CCN(Cc5ccc(-c6cn([C@H]7CC[C@H](O)CC7)c7nc(NCCC(F)(F)F)ncc67)cc5)CC4)CC3)cc21 [I-137, 3-[3-methyl-2-oxo-5-(3-[1-[(4-[7-[trans-4-hydroxycyclohexyl]-2-[(3,3,3-trifluoropropyl)amino]pyrrolo[2,3-d]pyrimidin-5-yl]phenyl)methyl]-[4,4-bipiperidin]-1-y1]propyl)-1,3-benzodiazol-1-yl]piperidine-2,6-dione] |
| > 50 | Cn1c(=O)n([C@H]2CCC(=O)NC2=O)c2cccc(CCCOCCCN3CCN(Cc4ccc(-c5cn([C@H]6CC[C@H](O)CC6)c6nc(NCCC(F)(F)F)ncc56)cc4)CC3)c21 [I-138, 3-[3-methyl-2-oxo-4-[3-(3-[4-[(4-[7-[trans-4-hydroxycyclohexy1]-2-[(3,3,3-trifluoropropyl)amino]pyrrolo[2,3-d]pyrimidin-5-yl]phenyl)methyl]piperazin-1-yl]propoxy)propyl]-1,3-benzodiazol-1-yl]piperidine-2,6-dione] |
| > 50 | Cn1c(=O)n([C@H]2CCC(=O)NC2=O)c2ccc(CCCOCCCN3CCN(Cc4cccc(-c5cn([C@H]6CC[C@H](O)CC6)c6nc(NCCC(F)(F)F)ncc56)c4)CC3)cc21 [I-139, 3-[3-methyl-2-oxo-5-[3-(3-[4-[(3-[7-[trans-4-hydroxycyclohexyl]-2-[(3,3,3-trifluoropropyl)amino]pyrrolo[2,3-d]pyrimidin-5-yl]phenyl)methyl]piperazin-1-yl]propoxy)propy1]-1,3-benzodiazol-1-yl]piperidine-2,6-dione] |
| 20 to 50 | Cn1c(=O)n([C@H]2CCC(=O)NC2=O)c2ccc(CCCOCCCN3CCN(Cc4cn([C@H]5CC[C@H](O)CC5)c5nc(NCCC(F)(F)F)ncc45)CC3)cc21 [I-140, 3-[3-methyl-2-oxo-5-(3-[3-[4-([7-[trans-4-hydroxycyclohexy1]-2-[(3,3,3-trifluoropropyl)amino]pyrrolo[2,3-d]pyrimidin-5-yl]methyl)piperazin-1-yl]propoxy]propyl)-1,3-benzodiazol-1-yl]piperidine-2,6-dione; formic acid] |
| > 50 | Cn1c(=O)n([C@H]2CCC(=O)NC2=O)c2ccc(CCCOCCCN3CCN(Cc4ccc(-c5cn([C@H]6CC[C@@](C)(O)CC6)c6nc(NCCC(F)(F)F)ncc56)cc4)CC3)cc21 [I-141, 3-[3-methyl-2-oxo-5-[3-(3-[4-[(4-[7-[cis-4-hydroxy-4-methylcyclohexyl]-2-[(3,3,3-trifluoropropyl)amino]pyrrolo[2,3-d]pyrimidin-5-y1]phenyl)methyl]piperazin-1-yl]propoxy)propyl]-1,3-benzodiazol-1-yl]piperidine-2,6-dione] |
| > 50 | Cn1c(=O)n([C@H]2CCC(=O)NC2=O)c2ccc(CCCOCCCN3CCN(Cc4ccc(-c5cn([C@H]6CC[C@](C)(O)CC6)c6nc(NCCC(F)(F)F)ncc56)cc4)CC3)cc21 [I-142, 3-[3-methyl-2-oxo-5-[3-(3-[4-[(4-[7-[trans-4-hydroxy-4-methylcyclohexyl]-2-[(3,3,3-trifluoropropyl)amino]pyrrolo[2,3-d]pyrimidin-5-yl]phenyl)methyl]piperazin-1-yl]propoxy)propyl]-1,3-benzodiazol-1-yl]piperidine-2,6-dione] |
| > 50 | Cn1c(=O)n([C@H]2CCC(=O)NC2=O)c2ccc(CCOC3CN(C4CCN(Cc5ccc(-c6cn([C@H]7CC[C@H](O)CC7)c7nc(NCCC(F)(F)F)ncc67)cc5)CC4)C3)cc21 [I-144, 3-(3-methyl-2-oxo-5-[2-[(1-[1-[(4-[7-[trans-4-hydroxycyclohexy1]-2-[(3,3,3-trifluoropropyl)amino]pyrrolo[2,3-d]pyrimidin-5-yl]phenyl)methyl]piperidin-4-yl]azetidin-3-yl)oxy]ethyl]-1,3-benzodiazol-1-yl)piperidine-2,6-dione; formic acid] |
| > 50 | Cn1c(=O)n([C@H]2CCC(=O)NC2=O)c2ccc(CCCC3CCN(C4CCN(Cc5ccc(-c6cn([C@H]7CC[C@H](O)CC7)c7nc(NCCC(F)(F)F)ncc67)cc5)CC4)CC3)cc21 [I-145, 3-[3-methyl-2-oxo-5-(3-[1-[(4-[7-[trans-4-hydroxycyclohexyl]-2-[(3,3,3-trifluoropropyl)amino]pyrrolo[2,3-d]pyrimidin-5-yl]phenyl)methyl]-[1,4-bipiperidin]-4-yl]propyl)-1,3-benzodiazol-1-y1]piperidine-2,6-dione; formic acid] |

| SMILES | Dmax [%] |
| --- | --- |
| Cn1c(=O)n([C@H]2CCC(=O)NC2=O)c2ccc(CCO[C@H]3C[C@@H](N4CCN(Cc5ccc(-c6cn([C@H]7CC[C@H](O)CC7)c7nc(NCCC(F)(F)F)ncc67)cc5)CC4)C3)cc21 [I-143, 3-[3-methyl-2-oxo-5-[2-(3-[4-[(4-[7-[trans-4-hydroxycyclohexyl]-2-[(3,3,3-trifluoropropyl)amino]pyrrolo[2,3-d]pyrimidin-5-yl]phenyl)methyl]piperazin-1-yl]cyclobutoxy)ethyl]-1,3-benzodiazol-1-yl]piperidine-2,6-dione; formic acid] | > 50 |

Reference: patent US20260042762A1 (Kymera Therapeutics, Inc., priority 2018, published 2026)
